The values below come from ChEMBL document CHEMBL5724696, “Autophagy assay results for EUbOPEN Chemogenomics Library” (2024).

SMILES strings stand for the structures.

Experiment [1] concerns U2OS. Description: (§1) Here: values are normalized to the positive (DMSO; basel flux = defined as 100% suppression) and negative (250nM Torin1; mTOR inhibitor; maximal inducer of autophagy defined as 0% suppression) control compounds and represented as % of ER-phagy suppression. […] The impact of autophagy induction on cells is complex and depends on the affected target. […] Of note, treatment concentrations may be sub-optimal for specific compounds, leading to false negative annotations. It is filed as functional, Homo sapiens. The conditions noted are these: Compound Concentration 1 uM, Culturing Media DMEM, 1 % Penicillin/Streptomycin, 10% Fetal bovin serum Add-On: blasticidin, Screening Media Control DMEM, 10% Fetal bovin serum Add-On: 1 µg/ml Doxycyclin, Screening Media Samples DMEM, 10% Fetal bovin serum Add-On: 1 µg/ml Doxycyclin 250nM Torin1.

For experiment [2], the system named is U2OS. The description is as §1. The conditions noted are these: Compound Concentration 1 uM, Culturing Media DMEM, 1 % Penicillin/Streptomycin, 10% Fetal bovin serum Add-On: blasticidin, Screening Media Control DMEM, 10% Fetal bovin serum Add-On: 1 µg/ml Doxycyclin, Screening Media Samples DMEM, 10% Fetal bovin serum Add-On: 1 µg/ml Doxycyclin 250nM Torin1. It is filed as functional, Homo sapiens. This is another data set of the same source.

For the compound `CCOC(=O)c1c(/C(C#N)=C\N)c2ccc(Cl)c(Cl)c2n1C`, the ER-phagy suppression is -5.524% in the experiment on U2OS [1] (Timepoint 12 hours); -4.715% in the experiment with U2OS [1] (Timepoint 24 hours); 1.333% in the experiment with U2OS [1] (Timepoint 36 hours); -3.592% in the experiment with U2OS [1] (Timepoint 60 hours); -23.9161% with U2OS [2] (Timepoint 12 hours); -42.4331% in the experiment with U2OS [2] (Timepoint 24 hours). The ER-phagy suppression was -44.7519% in the experiment on U2OS [2] (Timepoint 36 hours) and -41.2832% in the experiment on U2OS [2] (Timepoint 54 hours).
For `CN1C(=O)[C@@H](N2CCc3cn(Cc4ccccc4)nc3C2=O)COc2ccccc21` [TP-030-1], the ER-phagy suppression in the experiment on U2OS [1] (Timepoint 12 hours) was -22.1461%; with U2OS [1] (Timepoint 24 hours), -11.0455%; in the experiment with U2OS [1] (Timepoint 36 hours) it was -18.8351%; in the experiment with U2OS [1] (Timepoint 60 hours), -24.8138%; in the experiment on U2OS [2] (Timepoint 12 hours), -1.154%; in the experiment on U2OS [2] (Timepoint 24 hours), -18.125%. For the same compound, the ER-phagy suppression is reported as -30.7242% in the experiment with U2OS [2] (Timepoint 36 hours) and -23.6126% with U2OS [2] (Timepoint 54 hours).
`Cc1cnc(-c2cnc(NCCNc3ccc(C#N)cn3)nc2-c2ccc(Cl)cc2Cl)[nH]1` [LADUVIGLUSIB]: the ER-phagy suppression in the experiment with U2OS [1] (Timepoint 12 hours) is 40.8879%; in the experiment with U2OS [1] (Timepoint 24 hours) it was 29.9628%; with U2OS [1] (Timepoint 36 hours) it was 22.9027%; in the experiment on U2OS [1] (Timepoint 60 hours) it was 26.8731%; with U2OS [2] (Timepoint 12 hours), 16.4928%; with U2OS [2] (Timepoint 24 hours), 17.774%. Also, the ER-phagy suppression is 23.5271% in the experiment with U2OS [2] (Timepoint 36 hours) and 35.0421% with U2OS [2] (Timepoint 54 hours).
Take `CC(C)NC(=O)N1CC[C@H](NC2=Nc3cc(F)ccc3N(CC(F)F)c3ccc(Cl)cc32)C1`: the ER-phagy suppression is recorded as -0.3952% in the experiment with U2OS [1] (Timepoint 12 hours); -5.126% with U2OS [1] (Timepoint 24 hours); -3.1% in the experiment on U2OS [1] (Timepoint 36 hours); -4.344% in the experiment with U2OS [1] (Timepoint 60 hours); -34.3378% with U2OS [2] (Timepoint 12 hours); -42.165% with U2OS [2] (Timepoint 24 hours). Further, the ER-phagy suppression with U2OS [2] (Timepoint 36 hours) was -48.481%; with U2OS [2] (Timepoint 54 hours), -44.6081%.
Consider `O=c1[nH]c2ccc(Cl)cc2c(N[C@@H]2CN3CCC2CC3)c1-c1nc2ccccc2[nH]1`, for which the ER-phagy suppression is -7.286% with U2OS [1] (Timepoint 12 hours); 62.247% in the experiment on U2OS [1] (Timepoint 24 hours); 75.9097% with U2OS [1] (Timepoint 36 hours); 86.9183% in the experiment with U2OS [1] (Timepoint 60 hours); 27.312% in the experiment on U2OS [2] (Timepoint 12 hours); 66.3141% with U2OS [2] (Timepoint 24 hours). Moreover, the ER-phagy suppression in the experiment with U2OS [2] (Timepoint 36 hours) was 83.8118%; with U2OS [2] (Timepoint 54 hours), 95.864%.
In the case of `Cn1cc(-c2ccc3nnc(Sc4ccc5ncccc5c4)n3n2)cn1` [SGX-523], the ER-phagy suppression in the experiment with U2OS [1] (Timepoint 12 hours) was 6.2538%; in the experiment on U2OS [1] (Timepoint 24 hours), 0.9511%; in the experiment with U2OS [1] (Timepoint 36 hours), 4.373%; with U2OS [1] (Timepoint 60 hours), 11.7711%; in the experiment with U2OS [2] (Timepoint 12 hours) it was -11.2391%; in the experiment with U2OS [2] (Timepoint 24 hours), -26.6862%. In addition, the ER-phagy suppression with U2OS [2] (Timepoint 36 hours) is on record as -36.424%; with U2OS [2] (Timepoint 54 hours), -40.7928%.
Turning to `CN(C)C(=O)Cn1cc(-c2ccc(-c3nnc4ccccn34)cc2)cn1`, the ER-phagy suppression with U2OS [1] (Timepoint 12 hours) is on record as -17.2141%; in the experiment with U2OS [1] (Timepoint 24 hours), -21.3564%; in the experiment on U2OS [1] (Timepoint 36 hours), -13.477%; in the experiment with U2OS [1] (Timepoint 60 hours), -20.2221%; in the experiment with U2OS [2] (Timepoint 12 hours), -13.7824%; in the experiment with U2OS [2] (Timepoint 24 hours), -23.4109%. Also, the ER-phagy suppression is given as -24.5481% in the experiment on U2OS [2] (Timepoint 36 hours) and -15.5458% in the experiment with U2OS [2] (Timepoint 54 hours).
Take `O=C(O)c1ccc2c3c1cccc3c(=O)n1c3ccccc3nc21`: the ER-phagy suppression in the experiment with U2OS [1] (Timepoint 12 hours) was -11.121%; with U2OS [1] (Timepoint 24 hours), -24.1866%; in the experiment with U2OS [1] (Timepoint 36 hours) it was -20.6591%; with U2OS [1] (Timepoint 60 hours), -29.8702%; in the experiment on U2OS [2] (Timepoint 12 hours), -10.0258%; in the experiment with U2OS [2] (Timepoint 24 hours) it was -24.8466%. Besides, the values for the ER-phagy suppression in the experiment with U2OS [2] (Timepoint 36 hours) and with U2OS [2] (Timepoint 54 hours) were -33.5835% and -29.9152%, respectively.
As to `CN(c1ccnc(CNc2nc(Nc3ccc4c(c3)CC(=O)N4)ncc2C(F)(F)F)n1)S(C)(=O)=O` [PF-00911705], the ER-phagy suppression in the experiment on U2OS [1] (Timepoint 12 hours) came out at 7.113%; with U2OS [1] (Timepoint 24 hours), 19.7718%; with U2OS [1] (Timepoint 36 hours), 14.8623%; in the experiment with U2OS [1] (Timepoint 60 hours), 9.977%; in the experiment with U2OS [2] (Timepoint 12 hours), 20.0554%; with U2OS [2] (Timepoint 24 hours), 26.0373%. For the same compound, the ER-phagy suppression came to 39.3297% in the experiment with U2OS [2] (Timepoint 36 hours) and 54.466% with U2OS [2] (Timepoint 54 hours).
As to `COc1cc(Nc2nccc(-c3cnn4nc(OC)ccc34)n2)cc(C(F)(F)F)c1`, the ER-phagy suppression in the experiment on U2OS [1] (Timepoint 12 hours) was 6.994%; in the experiment with U2OS [1] (Timepoint 24 hours), 7.618%; in the experiment with U2OS [1] (Timepoint 36 hours), 14.0346%; with U2OS [1] (Timepoint 60 hours), 17.1827%; in the experiment with U2OS [2] (Timepoint 12 hours), 3.334%; with U2OS [2] (Timepoint 24 hours), -9.159%. The ER-phagy suppression is -23.3987% with U2OS [2] (Timepoint 36 hours) and -10.034% with U2OS [2] (Timepoint 54 hours).
As for `CN(C)C(=O)/C(C#N)=C/c1ccc(-c2nc3cnc4c(ccn4C)c3n2C2CCCCC2)o1`, the ER-phagy suppression in the experiment on U2OS [1] (Timepoint 12 hours) is -5.937%; in the experiment on U2OS [1] (Timepoint 24 hours), -19.1708%; in the experiment with U2OS [1] (Timepoint 36 hours), -21.5711%; with U2OS [1] (Timepoint 60 hours), -15.3462%; in the experiment on U2OS [2] (Timepoint 12 hours) it was -7.575%; in the experiment on U2OS [2] (Timepoint 24 hours), -15.5162%. The values for the ER-phagy suppression in the experiment with U2OS [2] (Timepoint 36 hours) and with U2OS [2] (Timepoint 54 hours) were -12.7474% and -14.5878%, respectively.
On to `CN1C(=O)[C@@H](N2CCc3c(nn(Cc4ccccc4)c3Br)C2=O)COc2ccccc21` [TP-030-2], for which the ER-phagy suppression in the experiment with U2OS [1] (Timepoint 12 hours) is -11.1908%; in the experiment with U2OS [1] (Timepoint 24 hours) it was -12.0413%; in the experiment with U2OS [1] (Timepoint 36 hours) it was -22.9996%; in the experiment with U2OS [1] (Timepoint 60 hours), -25.2811%; in the experiment on U2OS [2] (Timepoint 12 hours) it was 7.634%; with U2OS [2] (Timepoint 24 hours) it was -14.2706%. Also, the ER-phagy suppression is reported as -10.5345% in the experiment on U2OS [2] (Timepoint 36 hours) and -6.796% in the experiment with U2OS [2] (Timepoint 54 hours).
As to `O=C(NCc1ccccc1)c1ccc(S(=O)(=O)NCc2ccccc2)cc1`, the ER-phagy suppression is reported as -6.979% in the experiment on U2OS [1] (Timepoint 12 hours); -12.761% with U2OS [1] (Timepoint 24 hours); -1.702% in the experiment with U2OS [1] (Timepoint 36 hours); -8.939% in the experiment with U2OS [1] (Timepoint 60 hours); 3.538% with U2OS [2] (Timepoint 12 hours); -5.467% with U2OS [2] (Timepoint 24 hours). In addition, the ER-phagy suppression in the experiment on U2OS [2] (Timepoint 36 hours) is listed as -1.304%; in the experiment with U2OS [2] (Timepoint 54 hours), 10.3755%.
